Here are results for one compound from PMC6272674, “Selected Compounds Structurally Related to Acyclic Sesquiterpenoids and Their Antibacterial and Cytotoxic Activity” (Molecules, 2015).

Data set [1] relates to Mycobacterium smegmatis mc^2 155 ATCC 700084. Set-up: method as in PMID 21042264. The note with it: micro-dilution, NCCLS guidelines; cited from earlier work. Background: In broth dilution the organism is exposed to a series of concentrations in liquid medium.
Data set [2] concerns Promyelocytic Leukaemia HL-60. Briefly: MTT viability, HL-60. Type of data set: cell-based, human. The note with it: Homo sapiens, HL-60, 24 h, HL-60, MTT, range 10–1000 µM, read-out: half maximal inhibitory concentration (IC50), interpolated. The method in brief: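 Viability is given as the optical density ratio of treated to control wells after 24 h compound treatment at 37 °C. Formazan from a 4 h MTT incubation is solubilised with SDS/DMF and measured at 570 nm.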

For data set [3], the system named is non-small cell lung cancer cells A549. Further details: method as in PMID 12753732. The note with it: cited from earlier work.
Data set [4] concerns Escherichia coli ATCC 25922. Briefly: Micro-dilution broth MIC, Escherichia coli. Type of data set: cell-based. The note with it: ATCC25922, 24 h, 37 °C, read-out: Minimum Inhibitory Concentrations MIC. The method in brief:
(§1)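 Micro-dilution in Mueller-Hinton broth, with compounds added from an ethanol stock to give 10–80 µg/mL. Inocula were standardised to 0.5 McFarland (1.5 × 10^8 CFU), and a broth-only well served as the growth control. Strains were precultured aerobically on Columbia agar at 37 °C for 24 h.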

Data set [5] has as its system Acinetobacter baumannii ATCC 19606. Briefly: Micro-dilution broth MIC, Acinetobacter baumannii. The data set is classed as cell-based. As to conditions: ATCC19606, 24 h, 37 °C, read-out: Minimum Inhibitory Concentrations MIC. The method in brief:
as §1

Data set [6] relates to Staphylococcus aureus ATCC 43300. Briefly: Micro-dilution broth MIC, Staphylococcus aureus. Type of data set: cell-based. As to conditions: ATCC43300, 24 h, 37 °C, read-out: Minimum Inhibitory Concentrations MIC. The method in brief:
as §1

The test system of data set [7] is Colorectal Adenocarcinoma HT29. Briefly: MTT viability, HT29. As to conditions: Homo sapiens, HT-29, 24 h, range 10–1000 µM, read-out: half maximal inhibitory concentration (IC50), interpolated. Type of data set: cell-based, human. Summed up: (§2)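 Assay used 24 h compound treatment of cells plated at 1 × 10^4 cells/100 µL, followed by 4 h MTT and A570 reading after SDS/DMF lysis; results reported relative to untreated control.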

Data set [8] has as its system Staphylococcus aureus FDA209P. Set-up: method as in PMID 19078849. The note with it: 1 × 10^5 CFU, 48 h with shaking, turbidimetric; cited from earlier work.
The subject of data set [9] is Enterococcus faecium ATCC 35667. Briefly: Micro-dilution broth MIC, Enterococcus faecium. Type of data set: cell-based. The note with it: ATCC35667, 24 h, 37 °C, read-out: Minimum Inhibitory Concentrations MIC. Summed up: as §1
The test system of a further data set is Fibroblasts HFIG. Briefly: MTT viability, HFIG. The note with it: Homo sapiens, Fibroblast, 24 h, range 10–1000 µM, read-out: half maximal inhibitory concentration (IC50), interpolated. The data set is classed as cell-based, human. Summed up:
as §2

The subject of data set [10] is Enterococcus faecalis ATCC 51299. Briefly: Micro-dilution broth MIC, Enterococcus faecalis. The note with it: ATCC51299, 24 h, 37 °C, read-out: Minimum Inhibitory Concentrations MIC. The data set is classed as cell-based. The method in brief:
as §1

Data set [11] concerns Klebsiella pneumoniae ATCC 700603. In words: Micro-dilution broth MIC, Klebsiella pneumoniae. The data set is classed as cell-based. The note with it: ATCC700603, 24 h, 37 °C, read-out: Minimum Inhibitory Concentrations MIC. The method in brief:
as §1

Another data set deals with Malignant Melanoma MEWO. Briefly: MTT viability, MEWO. The note with it: Homo sapiens, 24 h, range 10–1000 µM, read-out: half maximal inhibitory concentration (IC50), interpolated. The data set is classed as cell-based, human. Summed up: as §2
Another data set relates to Keratinocytes HaCaT. In words: MTT viability, HaCaT. The data set is classed as cell-based, human. The note with it: Homo sapiens, 24 h, range 10–1000 µM, read-out: half maximal inhibitory concentration (IC50), interpolated. Summed up:
as §2

Data set [12] has as its system non-small cell lung cancer cells H460. Further details: method as in PMID 12753732. The note with it: cited from earlier work.
The nature of the next data set: MTT viability, IEC6. Type of data set: cell-based. The note with it: rat, IEC-6 small intestine epithelial cells, 1000 µM (IC50 exceeded 1000 µM), read-out: viability ± standard deviation at 1000 µM. The method in brief:
as §2

Values after ≈ are worked out from the molar mass of the structure shown. A value given as a limit tells only on which side of the number the result lay.

For `CC(C)=CCC/C(C)=C/CC/C(C)=C/CO` [Farnesol (4), farnesol, reference compound], the MIC in data set [1] was 64 µg/mL (≈ 288 µM); in [4], 28 µg/mL (≈ 126 µM); in [5], 18 µg/mL (≈ 80.9 µM); in data set [6], 26 µg/mL (≈ 117 µM); in data set [9], 16 µg/mL (≈ 72 µM); in data set [10], 18 µg/mL (≈ 80.9 µM). Besides, the MIC in data set [11] amounted to 16 µg/mL (≈ 72 µM). Besides, the IC50 in [2] is 54 µM; in data set [3], ~4.5 µM; in data set [7] it was 930 µM; with Fibroblasts HFIG, 350 µM; in the data set on Malignant Melanoma MEWO it was 378 µM; with Keratinocytes HaCaT, 489 µM. Further, the IC50 in data set [12] was ~4.5 µM. Also, the “concentration at which active” value in [8] is ≥ 10 µg/mL. Besides, the viability (commonly a per cent measure of how many cells are alive, often set against a control) at 24 h, 1000 µM in the data set “MTT viability, IEC6” amounted to 58%.
